Experimental data: publication PMC8296573, “Synthesis and Biological Evaluation of Fingolimod Derivatives as Antibacterial Agents” (ACS Omega, 2021)
In brackets after ≈: the same amount, converted by molar mass. Read-outs that look alike come from different tables or passages of the source.

Key:
S. aureus ATCC 25923 [1] = experiment: Antibacterial activity, pre-exposure (planktonic cells and biofilm formation); type: cell-based, Staphylococcus aureus; conditions: for MIC / inhibition at 5 µM / inhibition at 10 µM / inhibition at 15 µM / inhibition at 25 µM: Staphylococcus aureus, ATCC25923; for inhibition at 5 µM / inhibition at 10 µM / inhibition at 15 µM / inhibition at 25 µM / Average inhibition %, biofilms viability / Average inhibition %, planktonic cells viability: pre-exposure, ± SD
In short: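 Pre-exposure format: compound and bacterial culture co-incubated 18 h, 37 °C, aerobic, 220 rpm. Planktonic: turbidity (OD) plus resazurin viability, 20 μM final. Biofilm: PBS wash, 20 μM resazurin, then ethanol fixation and crystal violet staining, A595.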

P. aeruginosa ATCC 9027 = experiment: Antibacterial activity, pre-exposure; type: cell-based, Pseudomonas aeruginosa; conditions: for Average inhibition %, biofilms viability / Average inhibition %, planktonic cells viability / inhibition at 50 µM / inhibition at 100 µM / inhibition at 150 µM / inhibition at 200 µM: P. aeruginosa ATCC 9027, pre-exposure, ± SD; for inhibition at 50 µM / inhibition at 100 µM / inhibition at 150 µM / inhibition at 200 µM: Pseudomonas aeruginosa, ATCC9027
Procedure: (§1) The antimicrobial activity was assessed in a similar way for the initial screening and the dose–response evaluation against different bacterial strains. With the exception of the post-exposure experiment, the compounds were added to the wells along with the bacteria to test the ability of compounds to prevent bacterial growth and biofilm formation (pre-exposure). The compounds were diluted in DMSO and plated directly in 96-well plates before adding the bacterial culture, and plates were incubated for 18 h under aerobic conditions at 37 °C with shaking (220 rpm). The antibacterial activity of the compounds was assessed on planktonic cells and biofilms separately using two different measurements for each: optical density (turbidity) and resazurin reduction (viability) on planktonic cells and resazurin followed by a crystal violet staining assay (total biomass) on biofilms, as described in the following sections.
(§2) The resazurin staining was performed according to the protocol previously optimized with a few modifications.[46] Briefly, the planktonic solution was first transferred into a new 96-well plate and the OD of the planktonic solution was measured using a Varioskan LUX Multimode microplate reader (Thermo Scientific, Vantaa, Finland). Then, 10 μL of a 400 μM resazurin (R7017, Sigma-Aldrich, St. Louis, MO) diluted in phosphate-buffered saline (PBS) (Thermo Fisher Scientific, MA) was added to the wells (for a final resazurin concentration of 20 μM). The plate was incubated in the dark with shaking (220 rpm) for about 3–10 min at room temperature with S. aureus and A. baumannii (until the bacteria controls turned pink) or for 20 min at 37 °C with P. aeruginosa. Fluorescence was measured at λex = 560 nm and λem = 590 nm using the top optics of the Varioskan LUX Multimode microplate reader. The planktonic plate was then discarded. The original challenge plate containing the biofilms was washed once with PBS, and 200 μL of a 20 μM resazurin solution was added to the wells. The plate was incubated in the dark at 37 °C with shaking (220 rpm) for 30 min with S. aureus, 60 min with A. baumannii, and 90 min with P. aeruginosa. Fluorescence was measured as described for the planktonic solution. The biofilms were next treated with crystal violet staining.
(§3) After removing the resazurin solution from the plate, biofilms were fixed with ethanol 100% for 15 min at room temperature. Ethanol was then removed, and the biofilms were left to air-dry completely at RT. Crystal violet, diluted to 1:100 in deionized water from the 2.3% commercial solution (HT90132, Sigma-Aldrich, St. Louis, MO), was added to the wells and, after a 5 min incubation with the dye, the biofilms were washed twice with deionized water and left to air-dry for about 10 min. The dye was solubilized in ethanol 100% for 1 h, and absorbance was measured at 595 nm using a Multiskan Sky microplate spectrophotometer (Thermo Scientific, Vantaa, Finland).

S. aureus ATCC 25923 [2] = experiment: Antibacterial activity, post-exposure on preformed 18-h-old biofilms; type: cell-based, Staphylococcus aureus; conditions: ± SD; for inhibition at 25 µM / inhibition at 50 µM / inhibition at 100 µM / inhibition at 200 µM: Staphylococcus aureus; for inhibition at 25 µM: ATCC25923, 25 µM; for inhibition at 50 µM: ATCC25923, 50 µM; for inhibition at 100 µM: ATCC25923, 100 µM; for inhibition at 200 µM: ATCC25923, 200 µM
Procedure: For the post-exposure experiment, bacteria were grown with no compounds in the same conditions for 18 h, after which the media was changed, and compounds were added on the preformed biofilms. The plates were then incubated in the same conditions for an additional 24 h before proceeding to the staining assays.
as §2, §3

A. baumannii NCTC 13423 = experiment: Antibacterial activity, pre-exposure; type: cell-based, Acinetobacter baumannii; conditions: for Average inhibition %, biofilms viability / Average inhibition %, planktonic cells viability / inhibition at 10 µM / inhibition at 15 µM / inhibition at 25 µM / inhibition at 50 µM: A. baumannii NCTC 13423, pre-exposure, ± SD; for inhibition at 10 µM / inhibition at 15 µM / inhibition at 25 µM / inhibition at 50 µM: Acinetobacter baumannii, NCTC13423
Procedure: as §1, §2, §3

[3] = 10 µM, read-out: Average inhibition %, biofilms biomass
[4] = 10 µM, read-out: Average inhibition %, planktonic cells turbidity
[5] = 15 µM, read-out: Average inhibition %, biofilms biomass
[6] = 15 µM, read-out: Average inhibition %, planktonic cells turbidity
[7] = 25 µM, read-out: Average inhibition %, biofilms biomass
[8] = 25 µM, read-out: Average inhibition %, planktonic cells turbidity
[9] = 50 µM, read-out: Average inhibition %, biofilms biomass
[10] = 50 µM, read-out: Average inhibition %, planktonic cells turbidity
[11] = read-out: Average inhibition %, biofilms biomass
[12] = read-out: Average inhibition %, planktonic cells turbidity

CCCCCc1ccc(-c2ccc(CCC(N)(CO)CO)cc2)cc1 [Compound 15, 2-Amino-2-[2-(4′-pentyl-[1,1′-biphenyl]-4-yl)ethyl]propane-1,3-diol]
Initial screening result (active = at least 60% inhibition of planktonic cells and biofilm formation) (S. aureus ATCC 25923 [1]; 50 μM, S. aureus): active
MIC (S. aureus ATCC 25923 [1]; lowest concentration with no visible growth (>90% inhibition of turbidity and viability of planktonic cells), 18 h, read-out: MIC S. aureus ATCC 25923): 25 to 100 µM (≈ 8.54 to 34.1 µg/mL)
inhibition at 5 µM (S. aureus ATCC 25923 [1]; 5 µM, read-out: Average inhibition %, biofilms biomass): 44.4 ± 15%
inhibition at 5 µM (S. aureus ATCC 25923 [1]; 5 µM, read-out: Average inhibition %, planktonic cells turbidity): 44.9 ± 12.3%
inhibition at 10 µM (S. aureus ATCC 25923 [1]; [3]): 68.5 ± 20.6%
inhibition at 10 µM (S. aureus ATCC 25923 [1]; [4]): 70.3 ± 19.8%
inhibition at 15 µM (S. aureus ATCC 25923 [1]; [5]): 75.8 ± 18.7%
inhibition at 15 µM (S. aureus ATCC 25923 [1]; [6]): 72.5 ± 23.2%
inhibition at 25 µM (S. aureus ATCC 25923 [1]; [7]): 70.7 ± 26.8%
inhibition at 25 µM (S. aureus ATCC 25923 [1]; [8]): 76.5 ± 19.4%
MIC (S. aureus ATCC 25923 [1]; read-out: MIC (S. aureus)): 25 to 100 µM (≈ 8.54 to 34.1 µg/mL)
Average inhibition %, biofilms viability (S. aureus ATCC 25923 [1]; 5 µM): 42.5 ± 7.6%
Average inhibition %, planktonic cells viability (S. aureus ATCC 25923 [1]; 5 µM): 2.6 ± 4.5%
Average inhibition %, biofilms viability (S. aureus ATCC 25923 [1]; 10 µM): 71.3 ± 19.4%
Average inhibition %, planktonic cells viability (S. aureus ATCC 25923 [1]; 10 µM): 50.9 ± 46%
Average inhibition %, biofilms viability (S. aureus ATCC 25923 [1]; 15 µM): 70.4 ± 24.5%
Average inhibition %, planktonic cells viability (S. aureus ATCC 25923 [1]; 15 µM): 33.2 ± 57.6%
Average inhibition %, biofilms viability (S. aureus ATCC 25923 [1]; 25 µM): 79.3 ± 18.7%
Average inhibition %, planktonic cells viability (S. aureus ATCC 25923 [1]; 25 µM): 33.1 ± 57.3%
Average inhibition %, biofilms viability (P. aeruginosa ATCC 9027; 50 µM): 0 ± 0%
Average inhibition %, planktonic cells viability (P. aeruginosa ATCC 9027; 50 µM): 22.3 ± 2%
Average inhibition %, biofilms viability (P. aeruginosa ATCC 9027; 100 µM): 0 ± 0%
Average inhibition %, planktonic cells viability (P. aeruginosa ATCC 9027; 100 µM): 12 ± 14%
Average inhibition %, biofilms viability (P. aeruginosa ATCC 9027; 150 µM): 0.5 ± 0.8%
Average inhibition %, planktonic cells viability (P. aeruginosa ATCC 9027; 150 µM): 5.5 ± 6.3%
Average inhibition %, biofilms viability (P. aeruginosa ATCC 9027; 200 µM): 0 ± 0%
Average inhibition %, planktonic cells viability (P. aeruginosa ATCC 9027; 200 µM): 7.2 ± 6.3%
inhibition at 50 µM (P. aeruginosa ATCC 9027; [9]): 2.2 ± 2.2%
inhibition at 50 µM (P. aeruginosa ATCC 9027; [10]): 12.6 ± 9.1%
inhibition at 100 µM (P. aeruginosa ATCC 9027; 100 µM, read-out: Average inhibition %, biofilms biomass): 3.7 ± 3%
inhibition at 100 µM (P. aeruginosa ATCC 9027; 100 µM, read-out: Average inhibition %, planktonic cells turbidity): 11.3 ± 12.7%
inhibition at 150 µM (P. aeruginosa ATCC 9027; 150 µM, read-out: Average inhibition %, biofilms biomass): 4.4 ± 1.9%
inhibition at 150 µM (P. aeruginosa ATCC 9027; 150 µM, read-out: Average inhibition %, planktonic cells turbidity): 15.7 ± 13.7%
inhibition at 200 µM (P. aeruginosa ATCC 9027; 200 µM, read-out: Average inhibition %, biofilms biomass): 12 ± 10.7%
inhibition at 200 µM (P. aeruginosa ATCC 9027; 200 µM, read-out: Average inhibition %, planktonic cells turbidity): 13.7 ± 14.3%
MIC P. aeruginosa ATCC 9027 (P. aeruginosa ATCC 9027; pre-exposure, Inactive = no activity up to 200 μM, > = some inhibition but no MIC reached): Inactive
Average inhibition %, biofilms viability (S. aureus ATCC 25923 [2]; 25 µM): 19 ± 6.6%
Average inhibition %, planktonic cells viability (S. aureus ATCC 25923 [2]; 25 µM): 3.6 ± 6.3%
Average inhibition %, biofilms viability (S. aureus ATCC 25923 [2]; 50 µM): 30.8 ± 8.5%
Average inhibition %, planktonic cells viability (S. aureus ATCC 25923 [2]; 50 µM): 1.2 ± 2.1%
Average inhibition %, biofilms viability (S. aureus ATCC 25923 [2]; 100 µM): 31.9 ± 6.2%
Average inhibition %, planktonic cells viability (S. aureus ATCC 25923 [2]; 100 µM): 3.8 ± 6.6%
Average inhibition %, biofilms viability (S. aureus ATCC 25923 [2]; 200 µM): 38.7 ± 13.3%
Average inhibition %, planktonic cells viability (S. aureus ATCC 25923 [2]; 200 µM): 29.1 ± 25.2%
inhibition at 25 µM (S. aureus ATCC 25923 [2]; [11]): 34.9 ± 12.7%
inhibition at 25 µM (S. aureus ATCC 25923 [2]; [12]): 16.8 ± 10%
inhibition at 50 µM (S. aureus ATCC 25923 [2]; [11]): 44.9 ± 6.2%
inhibition at 50 µM (S. aureus ATCC 25923 [2]; [12]): 14.7 ± 13.4%
inhibition at 100 µM (S. aureus ATCC 25923 [2]; [11]): 43.6 ± 7.8%
inhibition at 100 µM (S. aureus ATCC 25923 [2]; [12]): 17.9 ± 1.1%
inhibition at 200 µM (S. aureus ATCC 25923 [2]; [11]): 45.5 ± 18.5%
inhibition at 200 µM (S. aureus ATCC 25923 [2]; [12]): 47.4 ± 13.9%
Average inhibition %, biofilms viability (A. baumannii NCTC 13423; 10 µM): 0 ± 0%
Average inhibition %, planktonic cells viability (A. baumannii NCTC 13423; 10 µM): 11 ± 1.5%
Average inhibition %, biofilms viability (A. baumannii NCTC 13423; 15 µM): 1 ± 1.5%
Average inhibition %, planktonic cells viability (A. baumannii NCTC 13423; 15 µM): 8.7 ± 2.5%
Average inhibition %, biofilms viability (A. baumannii NCTC 13423; 25 µM): 2.8 ± 2.6%
Average inhibition %, planktonic cells viability (A. baumannii NCTC 13423; 25 µM): 7.8 ± 6.9%
Average inhibition %, biofilms viability (A. baumannii NCTC 13423; 50 µM): 7.1 ± 0.8%
Average inhibition %, planktonic cells viability (A. baumannii NCTC 13423; 50 µM): 0 ± 0%
inhibition at 10 µM (A. baumannii NCTC 13423; [3]): 0%
inhibition at 10 µM (A. baumannii NCTC 13423; [4]): 0%
inhibition at 15 µM (A. baumannii NCTC 13423; [5]): 0.8 ± 1.4%
inhibition at 15 µM (A. baumannii NCTC 13423; [6]): 0%
inhibition at 25 µM (A. baumannii NCTC 13423; [7]): 0%
inhibition at 25 µM (A. baumannii NCTC 13423; [8]): 0%
inhibition at 50 µM (A. baumannii NCTC 13423; [9]): 4.8 ± 4.9%
inhibition at 50 µM (A. baumannii NCTC 13423; [10]): 0%
MIC A. baumannii NCTC 13423 (A. baumannii NCTC 13423; pre-exposure, Inactive = no activity up to 50 μM, > = some inhibition but no MIC reached): Inactive
